Like-named read-outs stand apart in the source and are kept apart here.
Key:
[1] = test system: U2OS cells; assay: cells; assay type: cell-based; details: Homo sapiens, 24 h
Method in brief: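 Cytotox CALUX U2OS cells, constitutively expressing luciferase, dosed with a compound dilution series 24 h after seeding and exposed 24 h. Luminescence after lysis reflects live-cell number; scaled between vehicle (100%) and 100 µM tributyltin acetate (0%).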

[2] = test system: LUHMES cells; assay: NeuriTox test: neurite area and viability, 24 h; assay type: cell-based, human; details: for EC25: Homo sapiens
Method in brief: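 LUHMES cells differentiated 48 h were reseeded at 100,000 cells/cm^2 without cAMP/GDNF and treated 1 h later for 24 h; for 120 h exposure, treatment on d5 and d7 with endpoints on d10. Calcein-AM/Hoechst imaging gave viability (live/total cells) and neurite area (calcein area minus somatic area).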

[3] = test system: SH-SY5Y cells; assay: Mitochondrial membrane potential (rhodamine 123), KE2 assay; assay type: cell-based, human; details: for EC25: Homo sapiens; for Ratios of EC25 KE4/KE2 MMP: NeuriTox neurite EC25 relative to SH-SY5Y MMP EC25
[4] = test system: proteasome; assay: Proteasomal activity (KE3 assay) in LUHMES cells; assay type: cell-based, human; details: for Ratios of EC25 KE4/KE3 proteasomal: NeuriTox neurite EC25 relative to proteasomal activity EC25, LUHMES
Protocol: Activity of the proteasome was quantified as described in (Gutbier et al. [2018b]). Briefly, after exposure, culture medium was replaced by assay buffer containing a cell-permeable proteasomal substrate (MeOSuc-Gly-Leu-Phe-AMC, 25 µM (Bachem, Bubendorf, Switzerland) in HBSS). Its AMC-fluorescence (ex: 360 nm, em: 465 nm) increases with proteasomal activity and was monitored for 90 min. Background-corrected data were used for further analysis.

[5] = test system: LUHMES cells; assay type: cell-based, human
Protocol: Cells were cultured and treated as described above for the NeuriTox assay. On d3, after 24 h treatment, culture medium was replaced by 33 µl/well 1 × Biospyder lysis buffer. After 15 min at room temperature, plates were sealed and frozen at -80 °C to complete lysis. Samples were analyzed at Bioclavis (Glasgow) using the TempO-Seq technique and the EU-ToxRisk v2.0 gene probe panel covering ca. 3000 genes (Yeakley et al. [2017]). All genes are listed in the supplementary excel file (containing also all gene regulations). Briefly, a 50 bp fragment of the target gene was amplified. The amplification step also introduced sample-specific barcodes. This allowed pooling of all samples and standard next-generation sequencing of the ensemble. Afterward, adapters were used to allocate the sequenced fragments to the correct samples. Finally, the alignment of all sequenced fragments (FASTQ files) for each sample to the collection of reference 50 bp oligonucleotides was performed for the quantification of reads per gene, also known as the read count values. In a pre-filtering step, samples with a total count < 0.2 million and genes with an average count < 1.5 were removed.
To correct for both read depth and RNA composition, the DESeq2′s median of ratios normalization was applied. The analysis of differentially expressed genes (DEG) of each treatment against the control group was done by the Wald test implemented in DESeq2/R (Love et al. [2014]), including an FDR correction for p-adjusted ≤ 0.05. […] A curve was fit through these concentration–response data to obtain EC10DEG. For comparability, all DEG data were normalized to a positive control. […] The EC10DEG was calculated using an established online open access BMC calculator (BMCeasy) (Krebs et al. [2020]).

[6] = test system: HepG2 cells; assay: HepG2-based respirometry, total cell respiration (earlier study); details: NeuriTox neurite EC25 relative to cell respiration EC25; respirometric data from HepG2-based assays ref van der Stel et al. 2020
[7] = test system: MRC complex (cI, cII or cIII); assay: HepG2-based MRC complex assay in permeabilized cells (earlier study); assay type: cell-based; details: NeuriTox neurite EC25 relative to complex assay EC25 in permeabilized cells; respirometric data from HepG2-based assays ref van der Stel et al. 2020
[8] = U2OS osteosarcoma cells, luminescence of constitutively expressed luciferase, read-out: Cytotox EC25 U2OS (converted)
[9] = NeuriTox exposure scheme, 24 h, read-out: LUHMES 24 h EC25 NA (neurite area) (converted)
[10] = NeuriTox exposure scheme, 24 h, read-out: LUHMES 24 h EC25 V (viability) (converted)
[11] = NeuriTox test, neurite outgrowth impairment, LUHMES 24 h, read-out: EC25 KE4 (AO) Neurite toxicity (converted)
[12] = SH-SY5Y differentiated 6 days, treated 24 h, rhodamine-123, read-out: pEC25 MMP (concentration where MMP was reduced by 25%) (converted)

SMILES: COC(=O)N(OC)c1ccccc1COc1ccn(-c2ccc(Cl)cc2)n1 [Pyraclostrobin]
- EC25 [1, 8]: > 100 µM
- EC25 [2, 9]: 25.1 µM
- EC25 [2, 10]: > 50.1 µM
- EC25 [2, 11]: 25.1 µM
- EC25 [3, 12]: 0.316 µM
- Ratios of EC25 KE4/KE2 MMP [3]: 85
- Ratios of EC25 KE4/KE3 proteasomal [4]: 0.7
- log2FoldChange AARS ([5]; gene AARS, 0.0856 µM, 24 h, vs 0.1% DMSO): -0.28 log2
- log2FoldChange AASDHPPT ([5]; gene AASDHPPT, 0.0856 µM, 24 h, vs 0.1% DMSO): 0.80 log2
- log2FoldChange AATF ([5]; gene AATF, 0.0856 µM, 24 h, vs 0.1% DMSO): -0.24 log2
- log2FoldChange ABCA1 ([5]; gene ABCA1, 0.0856 µM, 24 h, vs 0.1% DMSO): -1.33 log2
- log2FoldChange ABCA6 ([5]; gene ABCA6, 0.0856 µM, 24 h, vs 0.1% DMSO): 0.89 log2
- Ratios of EC25 KE4/KE1 total respiration [6]: 100
- Ratios of EC25 KE4/KE1 complex assay [7]: 400

SMILES: CCOCCc1ccc(OCCN=c2[nH]cnc(CC)c2Cl)c(C)c1C [Pyrimidifen]
- EC25 [1, 8]: 100 µM
- EC25 [2, 9]: 15.8 µM
- EC25 [2, 10]: 39.8 µM
- EC25 [2, 11]: 15.8 µM
- EC25 [3, 12]: 0.794 µM
- Ratios of EC25 KE4/KE2 MMP [3]: 21
- Ratios of EC25 KE4/KE3 proteasomal [4]: 1.1
- log2FoldChange AARS ([5]; gene AARS, 0.08 µM, 24 h, vs 0.1% DMSO): -0.45 log2
- log2FoldChange AASDHPPT ([5]; gene AASDHPPT, 0.08 µM, 24 h, vs 0.1% DMSO): 0.72 log2
- log2FoldChange AATF ([5]; gene AATF, 0.08 µM, 24 h, vs 0.1% DMSO): -0.0132 log2
- log2FoldChange ABCA1 ([5]; gene ABCA1, 0.08 µM, 24 h, vs 0.1% DMSO): -1.62 log2
- log2FoldChange ABCA6 ([5]; gene ABCA6, 0.08 µM, 24 h, vs 0.1% DMSO): 0.65 log2
- Ratios of EC25 KE4/KE1 total respiration [6]: 1260
- Ratios of EC25 KE4/KE1 complex assay [7]: 15850

SMILES: C=C(C)[C@H]1Cc2c(ccc3c2O[C@@H]2COc4cc(OC)c(OC)cc4[C@@H]2C3=O)O1 [Rotenone]
- EC25 ([1]; U2OS, read-out: Cytotox EC25 U2OS): 31.6 µM
- Offset between neurite endpoint (LUHMES/SH-SY5Y) and U2OS viability [2]: > 100 fold
- EC25 ([2]; 24 h, read-out: EC25 KE4 (AO) Neurite toxicity): 0.0794 µM
- EC25 ([2]; 24 h, read-out: LUHMES 24 h EC25 NA (neurite area)): 0.0794 µM
- EC25 ([2]; 24 h, read-out: LUHMES 24 h EC25 V (viability)): > 10 µM
- EC25 ([3]; SH-SY5Y, 24 h, read-out: pEC25 MMP (concentration where MMP was reduced by 25%)): 0.0398 µM
- Ratios of EC25 KE4/KE2 MMP [3]: 2.1
- Potency on neurotoxicity (KE4/AO) relative to proteostasis (KE3) ([4]; LUHMES): 100 times
- Ratios of EC25 KE4/KE3 proteasomal [4]: 0.01
- Proteasomal function (in words) ([4]; d2 LUHMES, 22 h incubation): reduced proteasome function at non-cytotoxic concentrations
- log2FoldChange AARS [5]: -0.41 log2
- log2FoldChange AASDHPPT [5]: 0.79 log2
- log2FoldChange AATF [5]: -0.42 log2
- log2FoldChange ABCA1 [5]: -0.98 log2
- log2FoldChange ABCA6 [5]: -0.24 log2
- Ratios of EC25 KE4/KE1 total respiration [6]: 1.3
- Ratios of EC25 KE4/KE1 complex assay [7]: 7.9

SMILES: Cc1nc(C(F)(F)F)c(C(=O)Nc2c(Br)cc(OC(F)(F)F)cc2Br)s1 [Thifluzamide]
- EC25 [1, 8]: 20 µM
- EC25 [2, 9]: 20 µM
- EC25 [2, 10]: 63.1 µM
- EC25 [2, 11]: 20 µM
- EC25 [3, 12]: > 10 µM
- Ratios of EC25 KE4/KE3 proteasomal [4]: 1.1
- log2FoldChange AARS ([5]; gene AARS, 0.15 µM, 24 h, vs 0.1% DMSO): -0.98 log2
- log2FoldChange AASDHPPT ([5]; gene AASDHPPT, 0.15 µM, 24 h, vs 0.1% DMSO): 0.89 log2
- log2FoldChange AATF ([5]; gene AATF, 0.15 µM, 24 h, vs 0.1% DMSO): -0.41 log2
- log2FoldChange ABCA1 ([5]; gene ABCA1, 0.15 µM, 24 h, vs 0.1% DMSO): -0.76 log2
- log2FoldChange ABCA6 ([5]; gene ABCA6, 0.15 µM, 24 h, vs 0.1% DMSO): 1.03 log2
- Ratios of EC25 KE4/KE1 total respiration [6]: < 2
- Ratios of EC25 KE4/KE1 complex assay [7]: 2.5

Source: article PMC7870626, “Neurotoxicity and underlying cellular changes of 21 mitochondrial respiratory chain inhibitors” (Archives of Toxicology, 2021)
